# Test results: patent publication US12281363B2, “Methods for detecting antiviral-drug resistant virus” (Secretary of State for Health and Social Care, priority 2018, dated 2025)
# Where two headings read alike, the source gives them in different places.
# Test system: HSV-1
# Experiment: Plaque reduction assay, HSV-1 clinical isolates on Vero cells
# Type: cell-based
# Settings: Human alphaherpesvirus 1, Vero
# Procedure, shortened: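 Susceptibility of HSV-1 isolates was read as percent plaque reduction versus no-drug control, counted on fixed, crystal-violet-stained sub-confluent Vero cells infected at 75 PFU/well beneath CMC. Intermediate resistance lies between cut-offs ACV <3/>40 μM, PCV <10/>40 μM, CDV <24/>30 μM, FOS <250/>400 μM.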
compound,measurement,setting,value
"Nc1nc2c(ncn2CCC(CO)CO)c(=O)[nH]1 [Penciclovir, penciclovir]",IC50,"isolate HPG033, HSV-1 TK I358L (1072A>C), also TK T287M, read-out: Drug susceptibility (IC50 value)",> 160 µM
same,IC50,"isolate HPG033, HSV-1 TK I358L (1072A>C), also TK T287M, read-out: Drug susceptibility Penciclovir (PCV)",> 40 µM
same,IC50,"isolate HPG033, HSV-1 pol N1046T (3137A>C), also TK T287M, pol A1169T, read-out: Drug susceptibility (IC50 value)",> 160 µM
same,IC50,"isolate HPG033, HSV-1 pol N1046T (3137A>C), also TK T287M, pol A1169T, read-out: Drug susceptibility Penciclovir (PCV)",> 40 µM
same,IC50,"isolate HPG035, HSV-1 pol S239L (716C>T), also pol S724N, read-out: Drug susceptibility (IC50 value)",14.6 µM
same,IC50,"isolate HPG035, HSV-1 pol S239L (716C>T), also pol S724N, read-out: Drug susceptibility Penciclovir (PCV)",10 to 40 µM
same,IC50,"isolate HPG037, HSV-1 TK L69M (205>A), also TK Y239H, read-out: Drug susceptibility Penciclovir (PCV)",> 40 µM
same,IC50,"isolate HPG037, HSV-1 TK R256W (766C>T), read-out: Drug susceptibility (IC50 value)",> 160 µM
same,IC50,"isolate HPG037, HSV-1 TK R256W (766C>T), read-out: Drug susceptibility Penciclovir (PCV)",> 40 µM
same,IC50,"isolate HPG037, HSV-1 TK Y239H (715T>C), read-out: Drug susceptibility (IC50 value)",> 160 µM
same,IC50,"isolate HPG037, HSV-1 TK Y239H (715T>C), read-out: Drug susceptibility Penciclovir (PCV)",> 40 µM
same,IC50,"isolate HPG039, HSV-1 TK 85* or H58fs (169delC, 170delC, 171delC, or 172delC), read-out: Drug susceptibility (IC50 value)",158 µM
same,IC50,"isolate HPG039, HSV-1 TK 85* or H58fs (169delC, 170delC, 171delC, or 172delC), read-out: Drug susceptibility Penciclovir (PCV)",> 40 µM
same,IC50,"isolate HPG040, HSV-1 pol S911N (2732G>A), also TK deletion (C) nt 896-900, pol A1169T, read-out: Drug susceptibility (IC50 value)",> 160 µM
same,IC50,"isolate HPG040, HSV-1 pol S911N (2732G>A), also TK deletion (C) nt 896-900, pol A1169T, read-out: Drug susceptibility Penciclovir (PCV)",> 40 µM
same,IC50,"isolate HPG041, HSV-1 pol S911N (2732G>A), also pol A1169T, read-out: Drug susceptibility (IC50 value)",3 µM
same,IC50,"isolate HPG041, HSV-1 pol S911N (2732G>A), also pol A1169T, read-out: Drug susceptibility Penciclovir (PCV)",< 10 µM
same,IC50,"isolate HPG042, HSV-1 pol A972V (2915C>T), also TK deletion (C) nt 881-885, pol A1169T, read-out: Drug susceptibility (IC50 value)",> 160 µM
same,IC50,"isolate HPG042, HSV-1 pol A972V (2915C>T), also TK deletion (C) nt 881-885, pol A1169T, read-out: Drug susceptibility Penciclovir (PCV)",> 40 µM
same,IC50,"isolate HPG042, HSV-1 pol G22R (64G>A), also TK deletion (C) nt 881-885, pol A1169T, read-out: Drug susceptibility (IC50 value)",> 160 µM
same,IC50,"isolate HPG042, HSV-1 pol G22R (64G>A), also TK deletion (C) nt 881-885, pol A1169T, read-out: Drug susceptibility Penciclovir (PCV)",> 40 µM
same,IC50,"isolate HPG043, HSV-1 TK 183* (437_438insA), read-out: Drug susceptibility (IC50 value)",> 160 µM
same,IC50,"isolate HPG043, HSV-1 TK 183* (437_438insA), read-out: Drug susceptibility Penciclovir (PCV)",> 40 µM
same,IC50,"isolate HPG045, HSV-1 TK L49R (146T>G), read-out: Drug susceptibility (IC50 value)",> 160 µM
same,IC50,"isolate HPG045, HSV-1 TK L49R (146T>G), read-out: Drug susceptibility Penciclovir (PCV)",> 40 µM
same,IC50,"isolate HPG045, HSV-1 pol L419I (1255C>A), also TK L49R, pol A1169T, read-out: Drug susceptibility (IC50 value)",> 160 µM
same,IC50,"isolate HPG045, HSV-1 pol L419I (1255C>A), also TK L49R, pol A1169T, read-out: Drug susceptibility Penciclovir (PCV)",> 40 µM
same,IC50,"isolate HPG046, HSV-1 TK I166N (497T>A), read-out: Drug susceptibility (IC50 value)",98.5 µM
same,IC50,"isolate HPG046, HSV-1 TK I166N (497T>A), read-out: Drug susceptibility Penciclovir (PCV)",> 40 µM
same,IC50,"isolate HPG047, HSV-1 pol E680 (2039A>C), also TK deletion (C) nt 548-553, pol A1169T, read-out: Drug susceptibility Penciclovir (PCV)",> 40 µM
same,IC50,"isolate HPG050, HSV-1 TK Q34* (100C>T), read-out: Drug susceptibility (IC50 value)",> 160 µM
same,IC50,"isolate HPG050, HSV-1 TK Q34* (100C>T), read-out: Drug susceptibility Penciclovir (PCV)",> 40 µM
same,IC50,"isolate HPG051, HSV-1 pol D83A (248A>C), also TK R176stop, read-out: Drug susceptibility (IC50 value)",> 160 µM
same,IC50,"isolate HPG051, HSV-1 pol D83A (248A>C), also TK R176stop, read-out: Drug susceptibility Penciclovir (PCV)",> 40 µM
same,IC50,"isolate HPG052, HSV-1 TK Q34* (100C>T), read-out: Drug susceptibility (IC50 value)",25 µM
same,IC50,"isolate HPG052, HSV-1 TK Q34* (100C>T), read-out: Drug susceptibility Penciclovir (PCV)",10 to 40 µM
same,IC50,"isolate HPG053, HSV-1 pol L802R + A834S (2405T>G, 2500G>T), also TK R176W, read-out: Drug susceptibility Penciclovir (PCV)",> 40 µM
same,IC50,"isolate HPG053, HSV-1 pol S911N (2732G>A), also TK R176W, pol A1169T, read-out: Drug susceptibility (IC50 value)",> 160 µM
same,IC50,"isolate HPG053, HSV-1 pol S911N (2732G>A), also TK R176W, pol A1169T, read-out: Drug susceptibility Penciclovir (PCV)",> 40 µM
same,IC50,"isolate HPG054, HSV-1 pol E992K (2974G>A), also TK insert (G) nt 430-436, pol A1169T, read-out: Drug susceptibility (IC50 value)",> 160 µM
same,IC50,"isolate HPG054, HSV-1 pol E992K (2974G>A), also TK insert (G) nt 430-436, pol A1169T, read-out: Drug susceptibility Penciclovir (PCV)",> 40 µM
same,IC50,"isolate HPG055, HSV-1 TK V204G (611T>G), also pol A1169AT, read-out: Drug susceptibility (IC50 value)",9.34 µM
same,IC50,"isolate HPG055, HSV-1 TK V204G (611T>G), also pol A1169AT, read-out: Drug susceptibility Penciclovir (PCV)",< 10 µM
same,IC50,"read-out: Drug susceptibility (IC50 value), isolate HPG005, HSV-1 TK A192T (574G>A)",5.19 µM
same,IC50,"read-out: Drug susceptibility (IC50 value), isolate HPG006, HSV-1 pol G121S (361G>A), also a TK resistance mutation (footnote a)",> 160 µM
same,IC50,"read-out: Drug susceptibility (IC50 value), isolate HPG012, HSV-1 pol G985E (2954G>A), also TK A93V",9.67 µM
same,IC50,"read-out: Drug susceptibility (IC50 value), isolate HPG016, HSV-1 pol A1169T (3505G>A)",7.19 µM
same,IC50,"read-out: Drug susceptibility (IC50 value), isolate HPG037, HSV-1 TK L69M (205>A), also TK Y239H",> 160 µM
same,IC50,"read-out: Drug susceptibility (IC50 value), isolate HPG042, HSV-1 TK frameshift (881delC to 885delC)",> 160 µM
same,IC50,"read-out: Drug susceptibility (IC50 value), isolate HPG047, HSV-1 pol E680 (2039A>C), also TK deletion (C) nt 548-553, pol A1169T",> 160 µM
same,IC50,"read-out: Drug susceptibility Penciclovir (PCV), isolate HPG005, HSV-1 TK A192T (574G>A)",< 10 µM
same,IC50,"read-out: Drug susceptibility Penciclovir (PCV), isolate HPG006, HSV-1 pol G121S (361G>A), also a TK resistance mutation (footnote a)",> 40 µM
same,IC50,"read-out: Drug susceptibility Penciclovir (PCV), isolate HPG012, HSV-1 pol G985E (2954G>A), also TK A93V",10 to 40 µM
same,IC50,"read-out: Drug susceptibility Penciclovir (PCV), isolate HPG016, HSV-1 pol A1169T (3505G>A)",< 10 µM
same,IC50,"read-out: Drug susceptibility Penciclovir (PCV), isolate HPG042, HSV-1 TK frameshift (881delC to 885delC)",> 40 µM
